The values below come from PubChem BioAssay AID330 (DTP/NCI, 2004).

Molecules are shown by their SMILES. “And” between values parts separate entries of the source, which are not always exact repeats. Equal entries are not always repeated. Inconclusive results and toxic doses are left out.

This assay concerns P388 leukemia ip, CD2F1 mice, survival T/C. Briefly: NCI In Vivo Anticancer Drug Screen. Data for tumor model P388 Leukemia (intraperitoneal) in CD2F1 (CDF1) mice. The note with it: endpoint: median survival time, higher = longer survival. In short, it runs like this: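 Mice carrying the transplanted tumor received test compound or vehicle. Survival was recorded in each group, and the value is the treated-group measurement divided by that of the vehicle-treated control group.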

Where [1] appears, read: dose: 100.0 mg/kg/injection, schedule: Q04DX002 (ip), vehicle: saline with Tween-80.
Setting [2] is: dose: 200.0 mg/kg/injection, schedule: Q04DX002 (ip), vehicle: saline with Tween-80.
Setting [3] is: dose: 12.5 mg/kg/injection, schedule: Q01DX005 (ip), vehicle: Klucel (hydroxypropylcellulose) (HPC).
[4] abbreviates: dose: 25.0 mg/kg/injection, schedule: Q01DX005 (ip), vehicle: Klucel (hydroxypropylcellulose) (HPC).
Where [5] appears, read: dose: 50.0 mg/kg/injection, schedule: Q01DX005 (ip), vehicle: Klucel (hydroxypropylcellulose) (HPC).
Setting [6] is: dose: 60.0 mg/kg/injection, schedule: Q01DX005 (ip), vehicle: saline with Tween-80.
Setting [7] is: dose: 120.0 mg/kg/injection, schedule: Q01DX005 (ip), vehicle: saline with Tween-80.
[8] abbreviates: dose: 240.0 mg/kg/injection, schedule: Q01DX005 (ip), vehicle: saline with Tween-80.
Where [9] appears, read: dose: 25.0 mg/kg/injection, schedule: Q01DX009 (ip), vehicle: saline with Tween-80.
The mark [10] stands for this setting: dose: 50.0 mg/kg/injection, schedule: Q01DX009 (ip), vehicle: saline with Tween-80.
[11] abbreviates: dose: 100.0 mg/kg/injection, schedule: Q01DX009 (ip), vehicle: saline with Tween-80.
[12] abbreviates: dose: 100.0 mg/kg/injection, schedule: Q01DX005 (ip), vehicle: Klucel (hydroxypropylcellulose) (HPC).
[13] abbreviates: dose: 12.5 mg/kg/injection, schedule: Q01DX009 (ip), vehicle: saline with Tween-80.

For `O=C1OCCc2c1[nH]c1ccccc21`, the T/C under setting [1] was 100 % of control and the T/C under setting [2] is 100 % of control.

Take `Cc1cc(N/N=C/c2ccc3c(c2)OCO3)c2cc3c(cc2n1)OCO3`: the T/C was 104 % of control (dose: 3.12 mg/kg/injection, schedule: Q01DX005 (ip), vehicle: Klucel (hydroxypropylcellulose) (HPC)); 95 % of control (dose: 6.25 mg/kg/injection, schedule: Q01DX005 (ip), vehicle: Klucel (hydroxypropylcellulose) (HPC)); 102 % of control and 95 % of control under setting [3]; 107 % of control and 114 % of control under setting [4]; 103 % of control under setting [5].

On to `CNC(=O)OCc1onc(-c2ccccc2)c1COC(=O)NC`, for which the T/C runs as follows: (dose: 12.5 mg/kg/injection, schedule: Q01DX005 (ip), vehicle: distilled water + Tween-80) 98 % of control; (dose: 25.0 mg/kg/injection, schedule: Q01DX005 (ip), vehicle: distilled water + Tween-80) 100 % of control; (dose: 50.0 mg/kg/injection, schedule: Q01DX005 (ip), vehicle: distilled water + Tween-80) 98 % of control; (dose: 100.0 mg/kg/injection, schedule: Q01DX005 (ip), vehicle: distilled water + Tween-80) 100 % of control; (dose: 200.0 mg/kg/injection, schedule: Q01DX005 (ip), vehicle: distilled water + Tween-80) 98 % of control.

Take `O=[N+]([O-])c1cc2[nH]cnc2c([N+](=O)[O-])c1NCc1ccccc1`: the T/C reads like this: under setting [1], 98 % of control; under setting [2], 97 % of control.

For the compound `CC[C@@]1(O)C[C@H](OC2CC(N(C)C)C(OC3CC(O)C(O[C@@H]4O[C@@H](C)C(=O)C=C4N)C(C)O3)C(C)O2)c2c(cc3c(c2O)C(=O)c2c(O)ccc(O)c2C3=O)[C@H]1C(=O)OC` (stereo not given in full), the T/C is 150 % of control (dose: 0.19 mg/kg/injection, schedule: Q01DX009 (ip), vehicle: saline); 161 % of control (dose: 0.38 mg/kg/injection, schedule: Q01DX009 (ip), vehicle: saline with Tween-80); 175 % of control (dose: 0.75 mg/kg/injection, schedule: Q01DX009 (ip), vehicle: saline with Tween-80); 163 % of control (dose: 0.75 mg/kg/injection, schedule: Q01DX009 (ip), vehicle: saline); 89 % of control (dose: 1.5 mg/kg/injection, schedule: Q01DX009 (ip), vehicle: saline with Tween-80); 182 % of control (dose: 1.5 mg/kg/injection, schedule: Q01DX009 (ip), vehicle: saline). For the same compound, the T/C by setting is: (dose: 3.0 mg/kg/injection, schedule: Q01DX009 (ip), vehicle: saline) 94 % of control; (dose: 1.0 micrograms/kg/injection, schedule: Q01DX005 (ip), vehicle: Klucel (hydroxypropylcellulose) (HPC)) 102 % of control; (dose: 2.0 micrograms/kg/injection, schedule: Q01DX005 (ip), vehicle: Klucel (hydroxypropylcellulose) (HPC)) 106 % of control; (dose: 4.0 micrograms/kg/injection, schedule: Q01DX005 (ip), vehicle: Klucel (hydroxypropylcellulose) (HPC)) 102 % of control; (dose: 8.0 micrograms/kg/injection, schedule: Q01DX005 (ip), vehicle: Klucel (hydroxypropylcellulose) (HPC)) 102 % of control.

Consider `CC(=Nc1c(C)noc1/C=C/c1ccccc1)NO`, for which the T/C is, setting by setting: (dose: 12.5 mg/kg/injection, schedule: Q04DX002 (ip), vehicle: saline with Tween-80) 104 % of control; (dose: 25.0 mg/kg/injection, schedule: Q04DX002 (ip), vehicle: saline with Tween-80) 97 % of control; (dose: 50.0 mg/kg/injection, schedule: Q04DX002 (ip), vehicle: saline with Tween-80) 95 % of control; under setting [1], 87 % of control.

Turning to `CS/N=N/N=C(\c1ccccc1)N1CCOCC1`, the T/C is, setting by setting: under setting [6], 103 % of control; under setting [7], 97 % of control.

Turning to `N#Cc1c(-c2nc3ccccc3s2)c(=O)oc2cc(O)ccc12`, the T/C under setting [6] is 99 % of control, the T/C under setting [7] was 95 % of control and the T/C under setting [8] is 95 % of control.

Turning to `CCn1c2c(c3ccccc31)CCSC2(C)CCN(C)C` (stereo not given), the T/C is 105 % of control under setting [9], 96 % of control under setting [10] and 117 % of control under setting [11].

In the case of `COc1cc(C/C(=C\c2ccc(OC)c(OCc3ccccc3)c2)[N+](=O)[O-])ccc1OCc1ccccc1`, the T/C was 100 % of control (dose: 9.38 mg/kg/injection, schedule: Q04DX003 (ip), vehicle: Klucel (hydroxypropylcellulose) (HPC)); 100 % of control (dose: 18.75 mg/kg/injection, schedule: Q04DX003 (ip), vehicle: Klucel (hydroxypropylcellulose) (HPC)); 100 % of control (dose: 37.5 mg/kg/injection, schedule: Q04DX003 (ip), vehicle: Klucel (hydroxypropylcellulose) (HPC)).

Regarding `CCn1c2ccccc2c2cc(/C=N/Nc3cc(C)nc4cc5c(cc34)OCO5)ccc21`, the T/C by setting is: under setting [5], 100 % of control; under setting [12], 89 % of control.

Consider `[CH3][Sn]([CH3])([n]1cc(CC(=O)O)c2ccccc21)[n]1cc(CC(=O)O)c2ccccc21`, for which the T/C under setting [5] is 116 % of control and the T/C under setting [12] was 108 % of control.

Regarding `O=[N+]([O-])c1cccn2nnnc12`, the T/C is 102 % of control (dose: 3.12 mg/kg/injection, schedule: Q01DX009 (ip), vehicle: saline with Tween-80); 87 % of control (dose: 6.25 mg/kg/injection, schedule: Q01DX009 (ip), vehicle: saline with Tween-80); 93 % of control under setting [13]; 95 % of control under setting [9]; 117 % of control and 96 % of control under setting [10]; 119 % of control under setting [11].

For `Cc1nc2c(n1C)C(=O)c1nc[nH]c(=O)c1C2=O`, the T/C is 102 % of control (dose: 1.75 mg/kg/injection, schedule: Q01DX005 (ip), vehicle: water); 92 % of control (dose: 3.5 mg/kg/injection, schedule: Q01DX005 (ip), vehicle: water); 96 % of control (dose: 7.0 mg/kg/injection, schedule: Q01DX005 (ip), vehicle: water); 96 % of control (dose: 14.0 mg/kg/injection, schedule: Q01DX005 (ip), vehicle: water).

Turning to `CCOC(=O)C(c1ccccc1)(S(C)(=O)=O)S(C)(=O)=O`, the T/C is, setting by setting: under setting [13], 108 % of control; under setting [9], 112 % of control; under setting [10], 104 % of control.

Turning to `Cc1ccc(S(=O)(=O)C2C(C)(C)C2(Sc2ccccc2)[Si](C)(C)C)cc1` (stereo not given), the T/C is 102 % of control (dose: 60.0 mg/kg/injection, schedule: Q01DX005 (ip), vehicle: Klucel (hydroxypropylcellulose) (HPC)); 106 % of control (dose: 120.0 mg/kg/injection, schedule: Q01DX005 (ip), vehicle: Klucel (hydroxypropylcellulose) (HPC)); 92 % of control (dose: 240.0 mg/kg/injection, schedule: Q01DX005 (ip), vehicle: Klucel (hydroxypropylcellulose) (HPC)).

Regarding `CCCCN(CCCC)CCNc1ccc(C)c2sc3cc(Cl)ccc3c(=O)c12`, the T/C by setting is: under setting [3], 95 % of control; under setting [4], 101 % of control; under setting [5], 99 % of control and 101 % of control; under setting [12], 96 % of control.

Consider `Cn1cnc([N+](=O)[O-])c1Sc1ncccn1`, for which the T/C is, setting by setting: under setting [9], 106 % of control; (dose: 25.0 mg/kg/injection, schedule: Q01DX009 (ip), vehicle: saline) 98 % of control; under setting [10], 98 % of control; (dose: 50.0 mg/kg/injection, schedule: Q01DX009 (ip), vehicle: saline) 104 % of control and 108 % of control; under setting [11], 100 % of control; (dose: 100.0 mg/kg/injection, schedule: Q01DX009 (ip), vehicle: saline) 108 % of control and 112 % of control. The T/C (dose: 200.0 mg/kg/injection, schedule: Q01DX009 (ip), vehicle: saline with Tween-80) is 106 % of control; the T/C (dose: 200.0 mg/kg/injection, schedule: Q01DX009 (ip), vehicle: saline) is 114 % of control and 122 % of control.

With `CC(=O)C(=O)C1=C2CCCN2CCc2cc3c(cc21)OCO3`, the T/C is, setting by setting: (dose: 6.25 mg/kg/injection, schedule: Q01DX009 (ip), vehicle: water) 92 % of control; (dose: 12.5 mg/kg/injection, schedule: Q01DX009 (ip), vehicle: water) 98 % of control; (dose: 25.0 mg/kg/injection, schedule: Q01DX009 (ip), vehicle: water) 93 % of control; (dose: 50.0 mg/kg/injection, schedule: Q01DX009 (ip), vehicle: water) 101 % of control; (dose: 100.0 mg/kg/injection, schedule: Q01DX009 (ip), vehicle: water) 99 % of control.

On to `CCN(CC)c1cccc(OC(=O)Nc2cccc(Cl)c2Cl)c1`, for which the T/C by setting is: under setting [6], 100 % of control; under setting [7], 100 % of control; under setting [8], 92 % of control.
